Target: T1, hP2X7 (Homo sapiens, UniProt Q99572)
T1 construct: expressed in transfected cells; host or cells: HEK-293, stably transfected (gift of E. Adinolfi's group, Ferrara University)
T1 sequence (Q99572 1-595): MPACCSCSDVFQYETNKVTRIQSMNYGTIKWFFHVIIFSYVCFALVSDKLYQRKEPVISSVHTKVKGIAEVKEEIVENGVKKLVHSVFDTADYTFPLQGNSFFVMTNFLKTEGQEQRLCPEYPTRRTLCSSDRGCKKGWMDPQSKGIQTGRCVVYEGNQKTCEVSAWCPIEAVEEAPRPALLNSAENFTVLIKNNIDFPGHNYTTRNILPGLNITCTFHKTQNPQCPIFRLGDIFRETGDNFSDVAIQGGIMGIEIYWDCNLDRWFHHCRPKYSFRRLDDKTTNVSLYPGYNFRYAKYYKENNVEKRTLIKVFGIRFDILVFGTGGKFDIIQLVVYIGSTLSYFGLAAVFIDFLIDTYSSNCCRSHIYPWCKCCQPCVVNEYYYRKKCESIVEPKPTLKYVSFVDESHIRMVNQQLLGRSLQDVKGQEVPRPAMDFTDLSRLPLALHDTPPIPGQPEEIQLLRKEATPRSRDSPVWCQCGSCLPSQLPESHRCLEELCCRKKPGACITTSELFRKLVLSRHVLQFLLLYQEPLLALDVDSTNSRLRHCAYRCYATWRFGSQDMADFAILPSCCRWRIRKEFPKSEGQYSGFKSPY
Experiment: YO-PRO 1 dye uptake assay, 1321 N1 cells stably transfected with hP2X7
Assay type: cell-based
Details: for activity in YO-PRO 1 dye uptake screen / reduction of P2X7 activation: compound 30 μM, 700 μM ATP; for reduction of P2X7 activation: 0.3% DMSO
Experimental: Astrocytoma 1321 N1 (established by Dr. Gaia Pasqualetto) and HEK-293 (kindly gifted by E. Adinolfi’s group, Ferrara University) both stably transfected with hP2X7, were used to assess the activity of the small molecules selected from the VS. Cells were maintained in DMEM:F12 (PanBiotech) supplemented with 10% FBS, 1% pen-strep, and 150 μg/mL G418 (PanBiotech).
Astrocytoma 1321 N1 cells (2–2.5 × 10^4 cells/well) and HEK-293 cells (4–5 × 10^4 cells/well) expressing hP2X7 were seeded in poly-L-lysine-coated 96-well plates (Sarstedt) 24 h before the experiment. YO-PRO 1 dye was prepared at 5 μM in extracellular solution with low divalent cations (ECS-LD) buffer (147 mM NaCl, 10 mM HEPES, 13 mM glucose, 0.2 mM CaCl2, 2 mM KCl, pH 7.4) and added to cells after washing them with Dulbecco’s phosphate- buffered saline (DPBS) (PanBiotech) and incubated for 20 min at 37 °C. ATP-induced dye uptake, mediated by hP2X7 activation, was monitored using a Clariostar plate reader (excitation: 485 nm; emission: 538 nm) for 30 cycles (75–150 s/cycle), after recording the baseline for five cycles. hP2X7 activation was quantified at cycle 10 by calculating the fluorescence intensity (FI) ratio (Δ(Fcycle 10–F cycle 1)/cycle time).
The P2X7 receptor, besides being a ligand-gated ion channel, forms large membrane pores following prolonged exposure to high concentrations of ATP, leading to apoptosis (Mackenzie et al. 2005). The YO-PRO 1 dye uptake assay, which measures dye influx through these pores, was selected as the primary screen. The fluorescence of YO-PRO 1 increases when it binds to DNA, enabling real-time monitoring of P2X7 activation (calculated as the rate of increase in fluorescence as YO-PRO 1 binds nuclear DNA).
The screening compounds were tested at 30 μM (0.3% DMSO) in 5 μM YO-PRO 1 dye diluted in freshly prepared ECS-LD buffer. Cells pretreated with the screening compounds were challenged with 700 μM ATP, and the fluorescence intensities were recorded. The negative control consisted of cells treated with 0.3% DMSO, while the positive control was 0.1 μM JNJ47965567, a selective P2X7 antagonist. ,
2 Initial screening assays to identify hit compounds. (A) The compounds were screened at 30 μM in the YO-PRO 1 dye uptake using 1321 N1 cells stably transfected with hP2X7. Compound activity was evaluated along a time of 20 min (75 s per cycle) after ATP addition (700 μM). The fluorescence intensity (FI) values of the first 10 cycles were considered for assessing their ability to inhibit hP2X7. Compound responses were normalized to the fluorescent signal recorded on 0.3% DMSO cells treated with 700 μM ATP of each plate. […] (B) Compounds screened at 10 μM using MPR using 1321 N1 cells stably transfected with hP2X7. The compound activity was evaluated for 5 min after ATP addition (15 s per cycle). The fluorescence intensity recorded in the first cycles (before reaching a plateau response) was considered for assessing the small molecule’s ability to inhibit hP2X7. Compound responses were normalized to the fluorescence signal recorded on 0.1% DMSO cells treated with 700 μM ATP of each plate. […] One-way ANOVA and Dunnet test were used for statistical analysis (****P < 0.0001), (*P < 0.02).

| Hill Slope of ATP concentration-response curve (YO-PRO 1 uptake, 1321 N1 hP2X7 cells) | EC50 (YO-PRO 1 uptake, 1321 N1 hP2X7 cells, ATP 1 μM to 10 mM) [µM] | activity in YO-PRO 1 dye uptake screen | reduction of P2X7 activation | SMILES |
| --- | --- | --- | --- | --- |
| 1.161 | 697 ± 203 | – | – | Nc1ncnc2c1ncn2[C@@H]1O[C@H](COP(=O)(O)OP(=O)(O)OP(=O)(O)O)[C@@H](O)[C@H]1O [ATP, reference compound] |
| – | – | antagonist activity | at least 50% | O=C(NCCc1ccccc1)NC(Cc1ccc2c(c1)OCO2)Cc1ccc2c(c1)OCO2 [Compound 2] |
| – | – | antagonist activity | at least 50% | O=C(CSc1ccccc1C(=O)Nc1ccnn1Cc1cccnc1)Nc1ccc2c(c1)OCO2 [Compound 9] |
